Test results reported in patent publication US20220323476A1, “ANTIVIRAL PRODRUGS AND FORMULATIONS THEREOF” (priority 2019, published 2022).

Legend:
[1] = Aqueous solubility (pH 7.4); settings: aqueous medium at pH 7.4, pH 7.4, aqueous buffer
[2] = Single dose rat PK, subcutaneous aqueous suspension, plasma EFdA by LC-MS/MS; settings: SC; for Cmax compared with EFdA itself / time with plasma levels of EFdA above LLOQ: single dose, 10 mg/kg equivalent of EFdA, 4 mg/mL, 0.5% CMC-Na/0.5% TWEEN-80
Protocol: Animals (Male SD rats ˜200-250 g and Male rhesus macaques ˜2-3 kg) were obtained from an approved vendor (SLAC Laboratory Animal Co. Ltd., Shanghai, China and/or Topgene Biotechnology, Wuhan city, Hubei Province, China).
Animals were fasted at least 12 hours prior to the administration. All animals had access to Certified Rodent and non-Rodent Diet (Catalog #M01-F, SLAC Laboratory Animal Cl. Ltd., Shanghai, China) ad libitum 4 hours post dosing.
The formulations were prepared on the day of dosing. Animals were dosed within four hours after the formulation is prepared. Two 20 μL aliquots of each formulation were removed from each of the formulation solutions, transferred into 1.5 mL of polypropylene microcentrifuge tubes and run dose validation by LC/UV or LC-MS/MS.
For SC dosing, the dose formulation was administered via subcutaneous injection following facility SOPs.
Approximately 200 μL blood was collected from saphenous vein at each time point for rats and 0.5 mL for rhesus macaques. All blood samples were transferred into microcentrifuge tubes containing 4 μL of K2EDTA (0.5M) as anti-coagulant and placed on wet ice until processed for plasma.
Blood: Blood samples were processed for plasma by centrifugation at approximately 4° C., 3000 g 15 min within half an hour of collection. Plasma samples was stored in polypropylene tubes, quick frozen over dry ice and kept at −70±10° C. until LC/MS/MS analysis.
If the carryover couldn't meet the criteria, then the percent of carryover should be estimated following in-house bioanalytical SOP.
Plasma concentration versus time data was analyzed by non-compartmental approaches using the Phoenix WINNONLIN 6.3 software program. Cmax, Tmax, T1/2, AUC(0-t), AUC(0-inf), MRT(0-t), MRT(0-inf), % F and graphs of plasma concentration versus time profile were reported.
Several prodrugs including EFdA (1) as a control were subjected to a single dose rat PK studies via subcutaneous route of administration. All were injected with equivalent doses of 10 mg/kg and concentration of 4 mg/mL of EFdA as an aqueous suspension formulation derived from 0.5% CMC-Na and 0.5% TWEEN-80.

[3] = Single dose rhesus macaque PK, subcutaneous aqueous suspension, plasma EFdA by LC-MS/MS
Protocol: The aqueous suspension formulations were derived from 0.25;% CMC-Na and 0.1;%/0.5% TWEEN-80 with equivalent concentration of 116 mg/mL and 319 mg/mL of EFdA for prodrug 5 and EFdA respectively.

[4] = male, rhesus monkey, plasma, sc, 50 mg/kg

SMILES	solubility [1]	Cmax compared with EFdA itself [2]	time with plasma levels of EFdA above LLOQ [2]	time with plasma levels of EFdA above LLOQ ([3]; rhesus macaque, SC, single dose, 50 mg/kg equivalent of EFdA, 116 mg/mL)	half life and mean residence life compared with EFdA ([2]; 100 mg/kg equivalent dose, 120 mg/mL (prodrug 3) vs 319 mg/mL (EFdA))	AUC(0-inf) [3, 4]	half-life [3, 4]
C#C[C@]1(COC(=O)CN)O[C@@H](n2cnc3c(N)nc(F)nc32)C[C@@H]1OC(=O)CN [Compound 14]	> 106000 µg/mL	–	–	–	–	–	–
C#C[C@]1(COC(=O)Cc2ccccc2)O[C@@H](n2cnc3c(N)nc(F)nc32)C[C@@H]1OC(=O)Cc1ccccc1 [Compound 5, (2R,3S,5R)-5-(6-amino-2-fluoro-9H-purin-9-yl)-2-ethynyl-2-((2-phenylacetoxy)methyl) tetrahydrofuran-3-yl 2-phenylacetate]	< 2 µg/mL	much lower than EFdA itself	more than a week	more than a month	–	–	–
C#C[C@]1(COC(=O)C(C)C)O[C@@H](n2cnc3c(N)nc(F)nc32)C[C@@H]1OC(=O)C(C)C [Compound 2, (2R,3S,5R)-5-(6-amino-2-fluoro-9H-purin-9-yl)-2-ethynyl-2-((isobutyryloxy)methyl) tetrahydrofuran-3-yl isobutyrate]	–	much lower than EFdA itself	more than a week	–	–	–	–
C#C[C@]1(COC(=O)C(CC)CC)O[C@@H](n2cnc3c(N)nc(F)nc32)C[C@@H]1OC(=O)C(CC)CC [Compound 3, (2R,3S,5R)-5-(6-amino-2-fluoro-9H-purin-9-yl)-2-(((2-ethylbutanoyl)oxy)methyl)-2-ethynyltetrahydrofuran-3-yl 2-ethylbutanoate]	< 2 µg/mL	much lower than EFdA itself	more than a week	–	Enhanced	–	–
C#C[C@]1(CO)O[C@@H](n2cnc3c(N)nc(F)nc32)C[C@@H]1O [Compound 1, (2R,3S,5R)-5-(6-amino-2-fluoro-9H-purin-9-yl)-2-ethynyl-2-(hydroxymethyl) tetrahydrofuran-3-ol]	–	–	–	–	–	135 ± 22.7 µM·h	69 ± 14 h
